The source of these data is US9932354B2, “Imidazo-oxadiazole and imidazo-thiadiazole derivatives” (Ares Trading S.A., priority 2012, dated 2018).

Assay [1] relates to Amyloid-β peptide release (Aβ42), HEK cells overexpressing APP (HEK-APP). The experiment in a line: Amyloid-β peptide release (Aβ42) assay, AlphaLISA on supernatant of HEK-APP cells. The class given is cell-based. Conditions: Homo sapiens, HEK293, 24 h incubation with compound, read-out: Ab42 IC50 Ranges. The procedure, abridged: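 HEK-APP cells treated with compounds for 24 h at 37 °C, 5% CO2. Supernatant Aβ42 or total Aβ measured by AlphaLISA after 4.5 h with antibody beads (6E10 acceptor beads for total). IC50 values derived.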

The subject of assay [2] is Amyloid-β peptide release (AβTotal), HEK cells overexpressing APP (HEK-APP). The experiment in a line: Amyloid-β peptide release (AβTotal) assay, AlphaLISA on supernatant of HEK-APP cells. The class given is cell-based. Conditions: ratio Abtot vs Ab42, HEK-APP cells, 24 h.

For the compound `Cc1cc(-c2nn3c(C)ncc3o2)ccc1NC(=O)Cc1ccccc1C(F)(F)F` [Example 40, N-(2-methyl-4-(5-methylimidazo[5,1-b][1,3,4]oxadiazol-2-yl)phenyl)-2-(2-(trifluoromethyl)phenyl)acetamide], in assay [1], the half-maximal inhibitory concentration (IC50) lay within 500 to 1000 nM. Moreover, the Abtot/Ab42 selectivity ranges result in assay [2] is “b (b: 100 fold > selectivity ≥ 50 fold)”.

Turning to `Cc1ncc2oc(-c3ccc(Nc4nccc(NCc5ccccc5C(F)(F)F)n4)cc3)nn12` [Example 74, N2-(4-(5-methylimidazo[5,1-b][1,3,4]oxadiazol-2-yl)phenyl)-N4-(2-(trifluoromethyl)benzyl)pyrimidine-2,4-diamine], the half-inhibitory concentration (IC50) in assay [1] lay within 1000 to 2200 nM. The Abtot/Ab42 selectivity ranges entry in assay [2] was “d (d: 10 fold > selectivity)”.

Turning to `Cc1ncc2oc(-c3ccc(C(=O)NCc4cccc(Cl)c4Cl)cc3)nn12` [Example 87, N-(2,3-dichlorobenzyl)-4-(5-methylimidazo[5,1-b][1,3,4]oxadiazol-2-yl)benzamide], the IC50 in assay [1] is 1000 to 2200 nM. In addition, the Abtot/Ab42 selectivity ranges entry in assay [2] was “c (c: 50 fold > selectivity ≥ 10 fold)”.

Turning to `Cc1ncc2sc(C(=O)NCc3ccccc3-c3ccccc3)nn12` [Example 111, 5-Methyl-imidazo[5,1-b][1,3,4]thiadiazole-2-carboxylic acid (biphenyl-2-ylmethyl)-amide], the IC50 in assay [1] is 1000 to 2200 nM. Besides, the Abtot/Ab42 selectivity ranges entry in assay [2] is reported as “d (d: 10 fold > selectivity)”.

For the compound `Cc1ncc2sc(-c3nnc(NCc4ccccc4F)o3)nn12` [Example 104, (2-Fluoro-benzyl)-[5-(5-methyl-imidazo[5,1-b][1,3,4]thiadiazol-2-yl)-[1,3,4]oxadiazol-2-yl]-amine], in assay [1], the IC50 was 1000 to 2200 nM. For the same compound, the Abtot/Ab42 selectivity ranges result in assay [2] is “d (d: 10 fold > selectivity)”.

As to `Cc1ncc2sc(C(=O)N3CCCCC3c3cccc(C(F)(F)F)c3)nn12` (stereo not shown) [Example 116, (5-Methyl-imidazo[5,1-b][1,3,4]thiadiazol-2-yl)-[2-(3-trifluoromethyl-phenyl)-piperidin-1-yl]-methanone], the half-inhibitory concentration (IC50) in assay [1] was 1000 to 2200 nM. For the same compound, in assay [2], the Abtot/Ab42 selectivity ranges entry was “d (d: 10 fold > selectivity)”.

In the case of `Cc1ncc2oc(-c3ccc(Nc4ccnc(NCc5ccccc5)n4)cc3)nn12` [Example 72, N2-benzyl-N4-(4-(5-methylimidazo[5,1-b][1,3,4]oxadiazol-2-yl)phenyl)pyrimidine-2,4-diamine], the concentration for half-maximal inhibition (IC50) in assay [1] fell in the range of 1000 to 2200 nM. Moreover, the Abtot/Ab42 selectivity ranges entry in assay [2] is listed as “d (d: 10 fold > selectivity)”.

As for `Cc1ncc2sc(C(=O)N(C)Cc3cccc(Cl)c3)nn12` [Example 95, 5-Methyl-imidazo[5,1-b][1,3,4]thiadiazole-2-carboxylic acid (3-chloro-benzyl)-methyl-amide], the IC50 in assay [1] is 500 to 1000 nM. For the same compound, the Abtot/Ab42 selectivity ranges result in assay [2] is recorded as “d (d: 10 fold > selectivity)”.

In the case of `Cc1ncc2oc(-c3ccc(NC(=O)Cc4cccc(C#N)c4)cc3)nn12` [Example 64, 2-(3-cyanophenyl)-N-(4-(5-methylimidazo[5,1-b][1,3,4]oxadiazol-2-yl)phenyl)acetamide], the concentration for half-maximal inhibition (IC50) in assay [1] was in the range of 500 to 1000 nM. In addition, the Abtot/Ab42 selectivity ranges entry in assay [2] was “b (b: 100 fold > selectivity ≥ 50 fold)”.

Regarding `CCOc1ccccc1CNC(=O)c1nn2c(C)ncc2s1` [Example 96, 5-Methyl-imidazo[5,1-b][1,3,4]thiadiazole-2-carboxylic acid 2-ethoxy-benzylamide], the concentration for half-maximal inhibition (IC50) in assay [1] was 500 to 1000 nM. The Abtot/Ab42 selectivity ranges entry in assay [2] is reported as “d (d: 10 fold > selectivity)”.

As to `Cc1ncc2sc(C(=O)N3CCC[C@H]3c3ccc(Br)cc3)nn12` [Example 114, (S)-(2-(4-bromophenyl)pyrrolidin-1-yl) (5-methylimidazo[5,1-b][1,3,4]thiadiazol-2-yl)methanone], in assay [1], the IC50 fell in the range of 1000 to 2200 nM. For the same compound, the Abtot/Ab42 selectivity ranges entry in assay [2] is recorded as “d (d: 10 fold > selectivity)”.

For `COc1cc(NC(=O)Cc2cccc(C(F)(F)F)c2)ccc1-c1nn2c(C)ncc2o1` [Example 31, N-(3-methoxy-4-(5-methylimidazo[5,1-b][1,3,4]oxadiazol-2-yl)phenyl)-2-(3-(trifluoromethyl)phenyl)acetamide], the 50% inhibitory concentration (IC50) in assay [1] is 100 to 500 nM. The Abtot/Ab42 selectivity ranges result in assay [2] is “a (a: selectivity ≥ 100 fold)”.

In the case of `Cc1ncc2sc(C(=O)NCc3cccc4ccccc34)nn12` [Example 105, 5-methyl-N-(naphthalen-1-ylmethyl)imidazo[5,1-b][1,3,4]thiadiazole-2-carboxamide], the IC50 in assay [1] lay in the range of 500 to 1000 nM. The Abtot/Ab42 selectivity ranges result in assay [2] is “d (d: 10 fold > selectivity)”.

As to `Cc1cccc(CNc2ccnc(Nc3ccc(-c4nn5c(C)ncc5o4)cc3)n2)c1` [Example 75, N4-(3-methylbenzyl)-N2-(4-(5-methylimidazo[5,1-b][1,3,4]oxadiazol-2-yl)phenyl)pyrimidine-2,4-diamine], the IC50 in assay [1] was 1000 to 2200 nM. In addition, in assay [2], the Abtot/Ab42 selectivity ranges entry is “d (d: 10 fold > selectivity)”.

Consider `Cc1ccccc1C1CCCN1C(=O)c1nn2c(C)ncc2s1` (stereo not shown) [Example 121, (5-Methyl-imidazo[5,1-b][1,3,4]thiadiazol-2-yl)-(2-o-tolyl-pyrrolidin-1-yl)-methanone], for which the concentration for half-maximal inhibition (IC50) in assay [1] fell in the range of 500 to 1000 nM. In addition, the Abtot/Ab42 selectivity ranges result in assay [2] is “d (d: 10 fold > selectivity)”.

As for `Cc1cc(-c2nn3c(C)ncc3o2)ccc1NC(=O)Cc1ccc(Cl)cc1` [Example 44, 2-(4-chlorophenyl)-N-(2-methyl-4-(5-methylimidazo[5,1-b][1,3,4]oxadiazol-2-yl)phenyl)acetamide], the half-inhibitory concentration (IC50) in assay [1] fell in the range of 500 to 1000 nM. Also, in assay [2], the Abtot/Ab42 selectivity ranges entry is recorded as “b (b: 100 fold > selectivity ≥ 50 fold)”.

`Cc1cc(-c2nn3c(C)ncc3o2)ccc1NC(=O)Cc1ccc(C(F)(F)F)cc1` [Example 39, N-(2-methyl-4-(5-methylimidazo[5,1-b][1,3,4]oxadiazol-2-yl)phenyl)-2-(4-(trifluoromethyl)phenyl)acetamide]: the half-inhibitory concentration (IC50) in assay [1] was in the range of 500 to 1000 nM. For the same compound, the Abtot/Ab42 selectivity ranges entry in assay [2] is reported as “b (b: 100 fold > selectivity ≥ 50 fold)”.

For `Cc1ncc2oc(-c3ccc(NC(=O)Cc4ccccc4OC(F)(F)F)cn3)nn12` [Example 81, N-[6-(5-Methyl-imidazo[5,1-b][1,2,4]oxadiazol-2-yl)-pyridin-3-yl]-2-(2-trifluoromethoxy-phenyl)-acetamide], in assay [1], the half-inhibitory concentration (IC50) is 1000 to 2200 nM. Further, the Abtot/Ab42 selectivity ranges result in assay [2] was “c (c: 50 fold > selectivity ≥ 10 fold)”.

For `COc1cc(NC(=O)Cc2cccc(Cl)c2)ccc1-c1nn2c(C)ncc2o1` [Example 33, 2-(3-chlorophenyl)-N-(3-methoxy-4-(5-methylimidazo[5,1-b] [1,3,4]oxadiazol-2-yl)phenyl)acetamide], the half-maximal inhibitory concentration (IC50) in assay [1] fell in the range of 500 to 1000 nM. In addition, in assay [2], the Abtot/Ab42 selectivity ranges entry is recorded as “b (b: 100 fold > selectivity ≥ 50 fold)”.

As for `Cc1ncc2oc(-c3ccc(NC(=O)Cc4cccc(OCc5ccccc5)c4)cc3)nn12` [Example 70, 2-(3-(benzyloxy)phenyl)-N-(4-(5-methylimidazo[5,1-b][1,3,4]oxadiazol-2-yl)phenyl)acetamide], in assay [1], the IC50 lay within 1000 to 2200 nM. The Abtot/Ab42 selectivity ranges entry in assay [2] is listed as “c (c: 50 fold > selectivity ≥ 10 fold)”.

For `Cc1ncc2oc(-c3ccc(NC(=O)Cc4ccc(Cl)c(Cl)c4)cn3)nn12` [Example 12, 2-(3,4-Dichloro-phenyl)-N-[6-(5-methyl-imidazo[5,1-b][1,2,4]oxadiazol-2-yl)-pyridin-3-yl]-acetamide], in assay [1], the half-maximal inhibitory concentration (IC50) fell in the range of 500 to 1000 nM. Besides, the Abtot/Ab42 selectivity ranges entry in assay [2] is reported as “c (c: 50 fold > selectivity ≥ 10 fold)”.

In the case of `Cc1cc(-c2nn3c(C)ncc3o2)ccc1NC(=O)Cc1ccc(OC(F)(F)F)cc1` [Example 45, N-(2-methyl-4-(5-methylimidazo[5,1-b][1,3,4]oxadiazol-2-yl)phenyl)-2-(4-(trifluoromethoxy)phenyl)acetamide], the concentration for half-maximal inhibition (IC50) in assay [1] fell in the range of 500 to 1000 nM. Moreover, in assay [2], the Abtot/Ab42 selectivity ranges result is “b (b: 100 fold > selectivity ≥ 50 fold)”.

As to `Cc1ncc2sc(C(=O)N3CCCC3c3ccc(F)cc3)nn12` (stereo not shown) [Example 124, [2-(4-Fluoro-phenyl)-pyrrolidin-1-yl]-(5-methyl-imidazo[5,1-b][1,3,4]thiadiazol-2-yl)-methanone], the IC50 in assay [1] fell in the range of 100 to 500 nM. In addition, in assay [2], the Abtot/Ab42 selectivity ranges entry was “d (d: 10 fold > selectivity)”.

For the compound `Cc1ncc2oc(-c3ccc(NC(=O)Cc4cccc(Br)c4)cc3)nn12` [Example 9, 2-(3-Bromo-phenyl)-N-[4-(5-methyl-imidazo[5,1-b][1,2,4]oxadiazol-2-yl)-phenyl]-acetamide], the IC50 in assay [1] lay in the range of 500 to 1000 nM. Besides, the Abtot/Ab42 selectivity ranges result in assay [2] is recorded as “c (c: 50 fold > selectivity ≥ 10 fold)”.

Regarding `Cc1ncc2oc(-c3ccc(Nc4ccn(Cc5ccc(Cl)c(Cl)c5)n4)cc3)nn12` [Example 30, [1-(3,4-Dichloro-benzyl)-1H-pyrazol-3-yl]-[4-(5-methyl-imidazo[5,1-b][1,2,4]oxadiazol-2-yl)-phenyl]-amine], the IC50 in assay [1] fell in the range of 1000 to 2200 nM. Further, the Abtot/Ab42 selectivity ranges result in assay [2] is listed as “c (c: 50 fold > selectivity ≥ 10 fold)”.

`Cc1ncc2oc(-c3ccc(NCc4ccc(Cl)c(Cl)c4)cn3)nn12` [Example 28]: in assay [1], the IC50 was in the range of 100 to 500 nM. In assay [2], the Abtot/Ab42 selectivity ranges result was “d (d: 10 fold > selectivity)”.

For the compound `COc1cc(C(=O)NCc2cccc3ccccc23)ccc1-c1nn2c(C)ncc2o1` [Example 20, 3-Methoxy-4-(5-methyl-imidazo[5,1-b][1,2,4]oxadiazol-2-yl)-N-naphthalen-1-ylmethyl-benzamide], in assay [1], the half-inhibitory concentration (IC50) was 1000 to 2200 nM. Also, the Abtot/Ab42 selectivity ranges result in assay [2] was “c (c: 50 fold > selectivity ≥ 10 fold)”.

With `Cc1ncc2oc(-c3ccc(NC(=O)NCc4ccccc4Cl)cc3)nn12` [Example 54, 1-(2-Chloro-benzyl)-3-[4-(5-methyl-imidazo[5,1-b][1,2,4]oxadiazol-2-yl)-phenyl]-urea], the IC50 in assay [1] is 1000 to 2200 nM. Besides, the Abtot/Ab42 selectivity ranges entry in assay [2] is recorded as “c (c: 50 fold > selectivity ≥ 10 fold)”.

In the case of `Cc1ncc2sc(C(=O)N3CCCC3c3ccccc3)nn12` (stereo not shown) [Example 93, (5-Methyl-imidazo[5,1-b][1,3,4]thiadiazol-2-yl)-(2-phenyl-pyrrolidin-1-yl)-methanone], in assay [1], the 50% inhibitory concentration (IC50) is 100 to 500 nM. Also, in assay [2], the Abtot/Ab42 selectivity ranges result is given as “d (d: 10 fold > selectivity)”.
